Read-outs that look alike come from different tables or passages of the source.

The test system of the assay is ZIKV replicon. The experiment in a line: ZIKV replication inhibition assay (NanoLuc replicon in Vero cells). As to conditions: Zika virus, Vero, 72 h. On the technique in general: In antiviral work, replicon cells carry a viral genome segment that copies itself.
[1] abbreviates: read-out: ZIKA Cell_Nanoluc, Vero cells with stable ZIKV replicon, 72 h, Nano-Glo readout.

For the molecule `O=C(Cc1ccccc1)Nc1cc(NC(=O)[N-]c2c[n+](Cc3ccc(CO)cc3)no2)cc(C(F)(F)F)c1` [Example 102, (3-(4-(Hydroxymethyl)benzyl)-1,2,3-oxadiazol-3-ium-5-yl)((3-(2-phenylacetamido)-5-(trifluoromethyl)phenyl)carbamoyl)amide], the EC50 under setting [1] was in the range of 1000 to 20000 nM.

Take `O=C(Cc1ccccc1)Nc1cc(NC(=O)[N-]c2c[n+](Cc3ccc(CCO)cc3)no2)cc(C(F)(F)F)c1` [Example 111, (3-(4-(2-Hydroxyethyl)benzyl)-1,2,3-oxadiazol-3-ium-5-yl)((3-(2-phenylacetamido)-5-(trifluoromethyl)phenyl)carbamoyl)amide]: the EC50 under setting [1] fell in the range of 100 to 1000 nM.

Consider `O=C([N-]c1c[n+](Cc2ccccn2)no1)Nc1cc(NC(=O)c2ccnn2-c2ccccc2)cc(C(F)(F)F)c1` [Example 34], for which the EC50 (read-out: ZIKA Cell_Nanoluc) fell in the range of 1000 to 20000 nM.

Turning to `O=C(Cc1ccccc1)Nc1cc(NC(=O)[N-]c2c[n+](Cc3ccc(-c4cccc5c4CNC5)cn3)no2)cc(C(F)(F)F)c1` [Example 14, (3-((5-(Isoindolin-4-yl)pyridin-2-yl)methyl)-1,2,3-oxadiazol-3-ium-5-yl)((3-(2-phenylacetamido)-5-(trifluoromethyl)phenyl)carbamoyl)amide], the EC50 under setting [1] is 1000 to 20000 nM.

Take `COC(=O)c1ccc(C[n+]2cc([N-]C(=O)Nc3cc(NC(=O)Cc4ccccc4)cc(C(F)(F)F)c3)on2)cc1` [Example 98, (3-(4-(Methoxycarbonyl)benzyl)-1,2,3-oxadiazol-3-ium-5-yl)((3-(2-phenyl-acetamido)-5-(trifluoromethyl)phenyl)carbamoyl)amide]: the EC50 under setting [1] lay within 1000 to 20000 nM.

For `N#Cc1ccn(C2(C(=O)Nc3cc(NC(=O)[N-]c4c[n+](Cc5ccccn5)no4)cc(C(F)(F)F)c3)CC2)n1` [Example 71], the EC50 (read-out: ZIKA Cell_Nanoluc) fell in the range of 1000 to 20000 nM.

In the case of `Nc1ccc(CC(=O)Nc2cc(NC(=O)[N-]c3c[n+](Cc4ccccn4)no3)cc(C(F)(F)F)c2)cn1` [Example 42], under “read-out: ZIKA Cell_Nanoluc”, the EC50 was in the range of 1000 to 20000 nM.

As to `O=C([N-]c1c[n+](Cc2ccccn2)no1)Nc1cc(NC(=O)C2CCCC3(CCOC3)O2)cc(C(F)(F)F)c1` (stereo not drawn) [Example 84], the EC50 (read-out: ZIKA Cell_Nanoluc) is 1000 to 20000 nM.

With `NCc1ccccc1C[n+]1cc([N-]C(=O)Nc2cc(NC(=O)Cc3ccccc3)cc(C(F)(F)F)c2)on1` [Example 114, (3-(2-(Aminomethyl)benzyl)-1,2,3-oxadiazol-3-ium-5-yl)((3-(2-phenylacetamido)-5-(trifluoromethyl)phenyl)carbamoyl)amide], under setting [1], the EC50 is 1000 to 20000 nM.

As for `COc1ncc(-c2ccc(C[n+]3cc([N-]C(=O)Nc4cc(NC(=O)CC5CCCCC5)cc(C(F)(F)F)c4)on3)cc2)c(C)n1` [Example 8], the EC50 (read-out: ZIKA Cell_Nanoluc) was 1000 to 20000 nM.

Consider `CN1CCCC(C[n+]2cc([N-]C(=O)Nc3cc(NC(=O)Cc4ccccc4)cc(C(F)(F)F)c3)on2)C1` (stereo not drawn) [Example 117, (3-((1-Methylpiperidin-3-yl)methyl)-1,2,3-oxadiazol-3-ium-5-yl)((3-(2-phenylacetamido)-5-(trifluoromethyl)phenyl)carbamoyl)amide], for which, under setting [1], the EC50 lay within 1000 to 20000 nM.

`COc1ncc(-c2ccc(C[n+]3cc([N-]C(=O)Nc4cc(NC(=O)C5CCCC5)cc(C(F)(F)F)c4)on3)cc2)c(C)n1` [Example 18]: for the setting “read-out: ZIKA Cell_Nanoluc”, the EC50 was 100 to 1000 nM.

Consider `O=C([N-]c1c[n+](Cc2ccccn2)no1)Nc1cc(NC(=O)C2CCCc3cn[nH]c32)cc(C(F)(F)F)c1` (stereo not drawn) [Example 38, (3-(Pyridin-2-ylmethyl)-1,2,3-oxadiazol-3-ium-5-yl)((3-(4,5,6,7-tetrahydro-1H-indazole-7-carboxamido)-5-(trifluoromethyl)phenyl)carbamoyl)amide], for which the EC50 under setting [1] is 1000 to 20000 nM.

In the case of `O=C([N-]c1c[n+](Cc2ccccn2)no1)Nc1cc(NC(=O)C2Cc3ccccc32)cc(C(F)(F)F)c1` (stereo not drawn) [Example 47], for the setting “read-out: ZIKA Cell_Nanoluc”, the EC50 lay within 1000 to 20000 nM.

Take `NCc1ccc(C[n+]2cc([N-]C(=O)Nc3cc(NC(=O)Cc4ccccc4)cc(C(F)(F)F)c3)on2)cc1` [Example 56, (3-(4-(Aminomethyl)benzyl)-1,2,3-oxadiazol-3-ium-5-yl)((3-(2-phenylacetamido)-5-(trifluoromethyl)phenyl)carbamoyl)amide]: the EC50 under setting [1] fell in the range of 1000 to 20000 nM.

Values taken from patent publication EP4563146A1 (IRBM S.P.A., priority 2023, dated 2025).
